Measured values reported in patent publication US20240400621A1, “PEPTIDES FOR METABOLIC SYNDROME” (ALPARIS, S.A. de C.V., priority 2021, published 2024).
Where two headings read alike, the source gives them in different places. Where no end group is shown, it is not given here.

Legend:
hTLR2 = target: T1, hTLR2 (Homo sapiens, UniProt O60603); experiment: hTLR2 stimulation in HEK-Blue hTLR2 cells (NF-κβ/SEAP reporter, QUANTI-Blue); type: cell-based
T1 construct: expressed in transfected cells; host or cells: HEK-Blue hTLR2 cells
Description: The analysis of the biological activity of the protein of SEQ ID NO. 1 was performed via an in vitro Toll-like receptors (TLRs) recognition assay. The HEK-Blue hTLR2 cell line expressing the hTLR2 receptor was used, whose stimulation activates the NF-Kβ factor, which in turn induces the production of the reporter protein, secreted embryonic alkaline phosphatase (SEAP). The SEAP levels are quantified by a colorimetric method with the reagent QUANTI-Blue and correspond to hTLR2 stimulation levels. The HEK-Blue hTLR2 cell line was thawed and propagated to make a master cell bank. From this bank, a vial was thawed to check the correct growth of the cell line and the absence of mycoplasma contamination. The cells of the thawed vial were propagated to make a working cell bank and continue the subcultures to mount the activity assay of SEQ ID NO. 1. This consisted of a series of tests in which the cellular response was evaluated with different molecules to determine the most suitable conditions for the assay.
The determined EC50 for SEQ ID NO. 1 was 1147±211 ng/ml (35.1±6.4 nM).
The in vitro biological activity of SEQ ID NO:2, SEQ ID NO:3, SEQ ID NO:4, SEQ ID NO: 8, SEQ ID NO:9, SEQ ID NO: 10, SEQ ID NO:11, SEQ ID NO: 12, SEQ ID NO: 13, SEQ ID NO: 14, SEQ ID NO: 15, and SEQ ID NO:16 was tested via the stimulation of hTLR2 in the cultures of HEK-Blue hTLR2 cells in 96-well plates for 24 h. After collecting the supernatant, the plate was incubated with QUANTI-Blue at 37° C. for 1 h, and absorbance was measured at 620 nm.
To determine the EC50, the absorbance was plotted against the logarithm of protein concentration, and the data was adjusted to a dose-response sigmoidal ligand binding model with 4 parameters. The cell culture medium was used as a negative control, and PAM (synthetic triacylated lipopeptide (Pam3CSK4)) was used as a positive control.

[1] = Body weight of mice on high-fat diet (DAG) with intragastric peptide for 12 weeks; type: in vivo, mice (C57BL/6JN)
Description: (§1) For all the in vivo testing, male mice of the C57BL/6JN strain between 8 to 10 weeks of age were used, housed in groups of 3 to 5 mice per cage with food and water ad libitum in ventilated racks, and whose microbiota were unified for 4 weeks.
(§2) The mice received either 200 μL of a phosphate buffer solution (PBS) at pH 7.5 (as a vehicle), or 200 μL of the PBS solution, with each of the intragastric treatments daily for 12 weeks. They were fed either a Normal Diet (DN, Harlan, Teklad 2018SX) with 18% of the calories coming from fat, or a High-Fat Diet (DAG, Research Diets, D12491), with 60% of the calories coming from fat.
(§3) All the mice were randomly divided into five experimental groups in order to study the effect of SEQ ID NO: 3 and SEQ ID NO: 2 correctly: • Group 1—Mice with DN that received 200 μl of PBS intragastrically. • Group 2—Mice with DAG that received 200 μl of PBS intragastrically. • Group 3—Mice with DAG that received 200 μl of PBS with SEQ ID NO: 3 intragastrically at a dose of: 2.5 μg/mouse. • Group 4—Mice with DAG that received 200 μl of PBS with SEQ ID NO: 2 intragastrically at a dose of 0.6 μg/mouse (high dose). • Group 5—Mice with DAG that received 200 μl of PBS with SEQ ID NO: 2 intragastrically at a dose of 0.2 μg/mouse (low dose).
The animal weights and feed intakes were recorded weekly.
To determine the metabolic status of the animals before starting the experiment, weight, basal glucose levels, glucose tolerance, and insulin resistance were recorded.

mice fed a high-fat diet [2] = experiment: Glucose tolerance test (GTT) in mice fed a high-fat diet; type: in vivo, mice (C57BL/6JN); conditions: 12 weeks; intragastric daily; SEQ ID NO: 3 2.5 μg/mouse, SEQ ID NO: 2 0.6 or 0.2 μg/mouse
Description: as §1
as §2, with “fat. […]” for “fat.”
The mice were subjected to fasting for 6 hours, and the baseline glucose values in the blood were determined using glucose test strips and a glucometer (Roche's ACCU-CHECK ACTIVE).
Next, the mice received an intraperitoneal injection of 1.8 mg of glucose per gram of body weight, and the blood glucose values were recorded at 15, 30, 60, and 120 minutes after administration.
FIGS. 19A and 19B show the area under the curve (AUC) of the glucose tolerance test of the mice, measured at week 0 and 12.

mice fed a high-fat diet [3] = experiment: Insulin resistance test (PRI) in mice fed a high-fat diet; type: in vivo, mice (C57BL/6JN); conditions: 12 weeks; intragastric daily; SEQ ID NO: 3 2.5 μg/mouse, SEQ ID NO: 2 0.6 or 0.2 μg/mouse
Description: as §1
as §2, with “fat. […]” for “fat.”
The mice were subjected to fasting for 6 hours and the baseline glucose values were determined, as described above. Subsequently, the mice received an intraperitoneal injection of 1 mU of insulin per gram of body weight, and blood glucose values were recorded at 15, 30, 60, and 120 minutes after administration. The area under the curve (AUC) of the insulin resistance test was calculated considering the glucose decrease between time T0 and T15 using the absolute glucose values, as shown in FIGS. 20A and 20B.

insulin = experiment: Insulin levels (secretion in response to glucose) in mice fed a high-fat diet; type: in vivo, mice (C57BL/6JN); conditions: 12 weeks; versus DAG group
Description: as §1, §2, §3
This means that the peptide SEQ ID NO: 3 improves insulin sensitivity, preventing insulin resistance from developing.

adipose tissue = experiment: Cellular infiltrate / inflammatory process in adipose tissue of mice fed a high-fat diet; type: in vivo, mice (C57BL/6JN)
Description: as §1, §2, §3
(§4) To determine the effect of the peptides SEQ ID NO: 2 and SEQ ID NO: 3 in attenuating the inflammatory process in adipose tissue, the cellular infiltrate of the adipose tissue of the mice was quantified after they had been fed DAG.

IL-1B = experiment: Circulating IL-1B levels in mice fed a high-fat diet; type: in vivo, mice (C57BL/6JN); conditions: 12 weeks; versus DAG; including SEQ ID NO: 2 at low doses
Description: as §1
as §2, with “fat. […]” for “fat.”
as §4

TNFα = experiment: Circulating TNFα levels in mice fed a high-fat diet; type: in vivo, mice (C57BL/6JN); conditions: 12 weeks; versus DAG; including SEQ ID NO: 2 at low doses
Description: as §1
as §2, with “fat. […]” for “fat.”
as §4

IL-6 = IL-6 levels in mice fed a high-fat diet; type: in vivo, mice (C57BL/6JN); conditions: 12 weeks; animals fed DAG
Description: as §1, §2, §3

leptin = experiment: Leptin levels in mice fed a high-fat diet; type: in vivo, mice (C57BL/6JN); conditions: 12 weeks; compared to mice fed only DAG
Description: as §1, §2
as §3, with “(low dose). […]” for “(low dose).”

adiponectin = experiment: Adiponectin levels in mice fed a high-fat diet; type: in vivo, mice (C57BL/6JN); conditions: 12 weeks; fall induced by DAG
Description: as §1, §2
as §3, with “(low dose). […]” for “(low dose).”

[4] = target: T2, human Toll-like receptor 2 (hTLR2) on HEK-Blue hTLR2 cells (human (printed as hTLR2), UniProt O60603 21-784); experiment: cell-based or functional assay
[5] = target: T2, human Toll-like receptor 2 (hTLR2) on …; experiment: cell-based or functional assay; remark: listed apart in the source
[6] = Aggregation during ultrafiltration / buffer change; type: physicochemical
From the text: The protein of SEQ ID NO. 1, expressed in recombinant form in this invention, contains a tag of six residues of histidine at the carboxyl terminal end, allowing it to be purified by immobilized metal cation affinity chromatography (IMAC). Purification was initially evaluated with the soluble fractions of the two strains that were used for recombinant production, obtained by enzymatic lysis and sonication. The first approach with the Ni-NTA Agarose resin allowed for the recovery of 6% of the SEQ ID NO. 1 with a purity of 50-80%. An FPLC Ákta Prime chromatographic system and an XK16/20 column packed with 13 mL of Chelating Sepharose Fast Flow-Ni^+2 resin were used for purification. A minimum imidazole concentration of 30 mM was defined in both the sample to be injected and the equilibrium buffer. Elution was performed with 500 mM imidazole at 6.5 mL/min, resulting in a minimum recovery of 80% of SEQ ID No. 1 with 82% purity. The ultrafiltration of the tangential flow of SEQ ID NO. 1 during the chromatography stage, in order to concentrate and change the buffer, negatively impacted protein quality. However, the dialysis of EQ ID NO.
However, the aggregation of SEQ ID NO. […] This was corroborated by the SDSPAGE analysis, in which the remaining protein in the soluble fraction presented fragments of lower molecular weight than that of SEQ ID NO. 1, but greater than 25 kDa. On the other hand, the precipitate turned out to be denatured SEQ ID NO. 1, but not degraded.
Finally, SEQ ID NO. 4 and SEQ ID NO.

T1 sequence (O60603 21-784): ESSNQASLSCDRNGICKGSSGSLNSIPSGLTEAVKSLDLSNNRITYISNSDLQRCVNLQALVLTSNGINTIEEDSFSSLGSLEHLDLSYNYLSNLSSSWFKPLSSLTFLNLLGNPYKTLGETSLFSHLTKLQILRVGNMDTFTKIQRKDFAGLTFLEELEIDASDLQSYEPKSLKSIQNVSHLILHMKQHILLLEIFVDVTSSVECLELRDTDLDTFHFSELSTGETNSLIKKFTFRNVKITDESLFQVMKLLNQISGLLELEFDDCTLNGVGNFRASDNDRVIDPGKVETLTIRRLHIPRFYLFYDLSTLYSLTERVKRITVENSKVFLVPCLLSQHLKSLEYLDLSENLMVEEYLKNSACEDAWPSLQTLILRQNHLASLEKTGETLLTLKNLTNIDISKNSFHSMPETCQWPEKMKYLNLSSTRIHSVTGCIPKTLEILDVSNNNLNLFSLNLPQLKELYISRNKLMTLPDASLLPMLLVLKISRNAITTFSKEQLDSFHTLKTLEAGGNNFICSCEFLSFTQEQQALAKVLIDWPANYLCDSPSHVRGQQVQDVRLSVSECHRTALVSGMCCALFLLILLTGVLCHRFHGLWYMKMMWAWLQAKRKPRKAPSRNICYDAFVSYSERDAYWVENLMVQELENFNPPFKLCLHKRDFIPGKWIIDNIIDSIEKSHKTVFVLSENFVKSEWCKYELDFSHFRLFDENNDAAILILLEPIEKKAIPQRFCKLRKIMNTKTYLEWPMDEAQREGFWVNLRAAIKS
T2 sequence (O60603 21-784): as above

AMNAITGMQDYLFTVNSIRIRNERMMPPPIANPAAAK [SEQ ID NO: 2]
concentration from which hTLR2 is (significantly) stimulated (hTLR2; HEK-Blue hTLR2 cells, 24 h): 3.05 nM
concentration giving the best hTLR2 stimulation (hTLR2; HEK-Blue hTLR2 cells, 24 h): 305 nM
Average weight ([1]; 0 weeks (initial state), DAG + SEQ ID NO: 2 High dose group): 23.9 grams
Average weight ([1]; 0 weeks (initial state), DAG + SEQ ID NO: 2 Low dose group): 23.8 grams
Average weight ([1]; 12 weeks, DAG + SEQ ID NO: 2 High dose (0.6 μg/mouse) intragastric daily): 42 grams
Average weight ([1]; 12 weeks, DAG + SEQ ID NO: 2 Low dose (0.2 μg/mouse) intragastric daily): 40.2 grams
glucose tolerance (AUC of GTT) versus DAG group (mice fed a high-fat diet [2]): improved glucose tolerance
insulin sensitivity (AUC of insulin resistance test) versus DAG group (mice fed a high-fat diet [3]): improve insulin sensitivity
insulin secretion in response to glucose administration (insulin): tendency to decrease insulin secretion
cellular infiltrate of adipose tissue (adipose tissue; 12 weeks, versus DAG group): prevented the increase in cellular infiltrate induced by DAG
inflammatory process in adipose tissue (adipose tissue; SEQ ID NO:2 in high or low doses): attenuate the inflammatory process in adipose tissue
circulating levels of IL-1B (IL-1B): prevented the increase in the circulating levels of IL-1B
circulating levels of TNFα (TNFα): prevented the increase in the circulating levels
IL-6 levels (IL-6): dramatic decrease in IL-6 levels
leptin secretion (leptin): decrease in leptin secretion
adiponectin in circulation (adiponectin): tendency to prevent a fall of adiponectin

SEQ ID NO: 12: peptide generated by proteolysis, obtained with both trypsin and Lys-C (MQLPIETPANNPEESDEADQAPWTPMPLEIAFQGDRESVLK)
stimulation of hTLR2 (hTLR2): do not stimulate hTLR2

SEQ ID NO: 14: peptide of the Lys-C proteolysate, passes the 5 kDa ultrafiltration membrane (PYMGK)
stimulation of hTLR2 (hTLR2): do not stimulate hTLR2

SEQ ID NO: 16: peptide of the Lys-C proteolysate, retained at the 10 kDa cutoff (EQVFVQVSLNLVHFNQPK)
stimulation of hTLR2 (hTLR2): do not stimulate hTLR2

AMNAITGMQDYLFTVNSIRIRNERMMPPPIANPAAAK [peptide SEQ ID NO: 2]
EC50 [4]: 24.9 nM

B1: protein of SEQ ID NO: 1 (AMUC_1100 of Akkermansia muciniphila without signal peptide, with Xa factor site and histidine tag) (ligand)
chain: MIVNSKRSELDKKISIAAKEIKSANAAEITPSRSSNEELEKELNRYAKAVGSLETAYKPFLASSALVPTTPTAFQNELKTFRDSLISSCKKKNILITDTSSWLGFQVYSTQAPSVQAASTLGFELKAINSLVNKLAECGLSKFIKVYRPQLPIETPANNPEESDEADQAPWTPMPLEIAFQGDRESVLKAMNAITGMQDYLFTVNSIRIRNERMMPPPIANPAAAKPAAAQPATGAASLTPADEAAAPAAPAIQQVIKPYMGKEQVFVQVSLNLVHFNQPKAQEPSEDIEGRHHHHHHDI
EC50 [5]: 1.15 µg/mL
EC50 [4]: 35.1 nM
relative activation of NF-κβ (hTLR2; 10 μg/mL, 24 h stimulation of hTLR2, 60 min QUANTI-Blue, with respect to the culture medium): 16.6%±2.7
aggregation in ultrafiltration operations [6]: aggregation

B2: peptide SEQ ID NO: 4 (amino terminal domain of SEQ ID NO: 1) (peptide)
chain: IVNSKRSELDKKISIAAKEIKSANAAEITPSRSSNEELEKELNRYAKAVGSLETAYKPFLASSALVPTTPTAFQNELKTFRDSLISSCKKKNILITDTSSWLGFQVYSTQAPSVQAASTLGFELKAINSLVNKLAECGLSKFIKVYRPQ
EC50 [4]: 65.9 nM
concentration from which hTLR2 is (significantly) stimulated (hTLR2; HEK-Blue hTLR2 cells, 24 h): 38 nM
relative response compared to PAM (hTLR2; maximum concentration tested (305 nM)): 101%
aggregation in ultrafiltration operations [6]: no visible aggregation
